Results as given in patent publication US6071707A, “Phosphotyrosine mimics and method for identifying and using same” (Boehringer Ingelheim Pharmaceuticals, Inc., priority 1997, dated 2000).

Tested on: anti-phosphotyrosine antibody (MAb PY-20)
Test: Method for identifying phosphotyrosine mimics: competitive binding to anti-phosphotyrosine antibody (ELISA)
Parameters: species or system mouse
Settings: ELISA criterion: 50% or greater inhibition of anti-phosphotyrosine binding 15 μg/ml; biotinylated peptide ECQ(pY)QPQP
From the text: The present invention also provides a convenient and sensitive method for identifying phosphotyrosine mimics by utilizing anti-phosphotyrosine antibodies to rapidly screen large numbers of non-phosphorylated test compounds. Specifically, this method comprises the steps of:
(a) contacting a non-phosphorylated test compound and a phosphotyrosine-containing substance with an anti-phosphotyrosine antibody; and
(b) detecting the ability of the non-phosphorylated test compound to inhibit the binding of the anti-phosphotyrosine antibody to the phosphotyrosine-containing substance.
A 96 well microtiter plate (Pierce #15126, Reacti-Bind Streptvidin coated polystyrene) was coated with 100 μl of biotinylated peptide ECQ(pY)QPQP (MW=1367.5) at a concentration of 15 nM in Tris Buffered Saline (TBST) (10 mM Tris.HCl, pH 7.5, 100 mM NaCl, 0.1% Tween 20) for 45 minutes at room temperature. The microtiter plate was washed 4 times with TBST. MAb PY-20 (Zymed #03-7799) was pre incubated for 45 minutes at a 2× concentration of 0.078 μg/ml ([…]) with a 2× concentration of non-phosphorylated test compounds in TBST. 100 μl of test compound/antibody solution was added in duplicate to each of the wells and incubated at room temperature. The microtiter plate was washed 4 times with TBST. […] Optical density was measured at 405 nm. […]

## O=C(O)c1ccccc1 [phenyl carboxylic acid]
  identification as phosphotyrosine mimic (inhibition of anti-phosphotyrosine antibody binding to a phosphotyrosine-containing substance): identified as a phosphotyrosine mimic
